The record followed here is patent US12617818B2, “Compositions and methods for modulating myosin subfragment-2 coiled coil stability and methods for using them” (UNIVERSITY OF NORTH TEXAS, priority 2020, dated 2026).

Assay [1] concerns rabbit skeletal myosin HMM. Nature of the assay: In vitro motility assay of actin thin filaments over myosin HMM. Type of assay: biochemical. From the text: In vitro motility assay a classic method to determine the sliding velocity of actin thin filaments over immobilized myosin in the presence of ATP (Kron et al., 1991). The assay involves the immobilization of myosin either in thick filament assembly or through individual myosin molecule on a nitrocellulose or dichlorodimethylsilane treated coverslip. Fluorescently labelled actin thin filament is allowed to slide across the bound myosin molecule upon addition of ATP. Sliding of actin over myosin treated with myosin S2 binding proteins would establish their effect over acto-myosin interaction and overall force produced. Myosin heavy meromyosin would be enough to test the effect of stabilizer and destabilizer over the acto-myosin interaction, however to test the effect of MyBPC over myosin reconstituted in its thick filament form would be required since MyBPC binds to both light meromyosin and myosin S2. Myosin in its thick filament form will improve the binding of MyBPC to a myosin molecule rather than a single myosin molecule immobilized on a glass surface.
Rabbit skeletal myosin is dialyzed against buffer containing 0.5 M potassium chloride and 10 mM imidazole with pH 7.0 overnight to remove the impurities. Dialyzed myosin undergoes trypsin digestion with 1 mM magnesium chloride and α-chymotrypsin, digestion was stopped after addition of phenylmethylsulfonylfluoride in methanol at room temperature. Tryptic digest of myosin is dialyzed overnight at 4° C. against buffer containing 0.04 M potassium chloride and 10 mM imidazole with pH 7.0. Dialyzed tryptic digest of myosin is centrifuged at 21000 g for 60 minutes at 4° C. to yield myosin heavy meromyosin in the supernatant. This myosin heavy meromyosin achieved has a mixture of ATP sensitive and ATP insensitive heads. To purify myosin heavy meromyosin with ATP sensitive myosin S1 heads, F actin is added at an equimolar concentration to the unpurified myosin heavy meromyosin extract along with 1 mM ATP and magnesium chloride. Low salt assay buffer (25 mM potassium chloride, 10 mM imidazole, 2 mM magnesium chloride and 10 mM dithioerythritol with pH 7.0) was used as mixing solvent for the myosin heavy meromyosin purification step. Purified myosin heavy meromyosin with ATP sensitive heads are suspended in the supernatant when unpurified myosin heavy meromyosin with F actin, ATP and magnesium chloride is centrifuged with the speed of 21000 g at 4° C. ATP insensitive heads will bind F actin irreversibly thus forming the precipitate in the centrifugation step. Purified myosin heavy meromyosin with ATP sensitive heads are ready for the in vitro motility assay.
Rhodamine phalloidin labelling of F-actin F-actin and rhodamine phalloidin are mixed in 1:5 micro molar concentration ratio with low salt assay buffer. Rhodamine phalloidin binds in between the grooves of actin subunits of F-actin. The mixture of F-actin and rhodamine phalloidin is allowed to incubate overnight at 4° C. to allow maximal labelling of F-actin.
Glass coverslips are coated with freshly prepared 2% dichlorodimethylsilane in chloroform. Perfusion chamber is created by two halves of glass coverslips on a clean glass slide with help of vacuum grease. The perfusion chamber is then sealed with dichlorodimethylsilane treated coverslip with two side open to allow perfusion of buffer from one end and wicking on the opposite end. First step in preparation of slide is to immobilize either purified myosin heavy meromyosin or myosin thick filaments. These purified products are diluted with low salt assay buffer to achieve a final concentration of 0.1 μM before adding them in to perfusion chamber. Myosin heavy meromyosin or myosin thick filaments are allowed to immobilize on dichloro-dimethylsilane treated coverslip for a minute. Unbound myosin is washed away by low salt assay buffer once and multiple washes with assay buffer mixed with 0.5 mg/ml bovine serum albumin (AB-BSA) blocks the unbound protein. […]

The test system of assay [2] is rabbit skeletal muscle myofibrils. Nature of the assay: Myofibrillar contractility assays (20 μL myofibril drop, 18 mM ATP added). Format: biochemical. The note with it: for % Contraction of imaged myofibril (FIG. 55, 56): after ATP; for IC50: read-out: IC-50 Value (50 percent of the reduction in percent contractility). As for the experimental part: Propionic acid, imidazole, and Mg(C2H3O2)2 were purchased from Sigma-Aldrich (St. Louis, MO). Boric Acid and KOH were purchased (EM Industries, Gibbstown, NJ). CaCl2) were purchased from Avantor (Center Valley, PA). We used myofibrils previously extracted and prepared from rabbit skeletal muscle as described by Duong and Reisler (1989). Afterwards, we stored the myofibril suspension with glycerol in a 1:1 ratio at −10° C.
We created a buffer solution with 2.2 mM Mg(C2H3O2)2, 10 mM imidazole, 130 mM propionic acid, 0.1 mM CaCl2) and titrated the solution with 10 M KOH until the pH reached 7. We decided to combine these chemicals and target a pH of 7 in order to simulate regular cell conditions for the myofibrils.
We began by extracting 50 mg of the myofibril suspension and adding 1 mL of our buffer into a 2 mL microcentrifuge tube. Next, we centrifuged the tube three times at 5000 RPM for 5 minutes on an IEC Micromax microcentrifuge, thereby isolating the denser myofibril from the lighter glycerol and unnecessary cellular constituents. After each centrifugation, we disposed of the supernatant and filled the microcentrifuge tube to 1 mL again with our buffer. Furthermore, we used a Fisher Vortex Genie 2™ to dislodge the pellet from the bottom of the microcentrifuge tube, making the next centrifugation effective. Following the series of centrifugations, we stored the myofibrils with the buffer in a 4° C. fridge to maintain their biological function. Every 2 days, we prepared new myofibrils with the method described above because previous batches of myofibril would be subject to rigor mortis: muscle death where myofibrils are indefinitely contracted.
A myofibrillar contractility assay tests the effect of certain chemical compounds on myofibril contraction. The assay involves the interaction of myofibrils with ATP, and we measured sarcomere length before and after the addition of ATP to determine percent contractility of myofibrils.
We created an apparatus for myofibrillar contractility assays by attaching a coverslip to a modified petri dish using electrical tape. Each coverslip used on the apparatus can run three assays total. We placed the apparatus on a ZEISS IM35™ inverted microscope equipped with a CANON POWERSHOT A510™ connected to one of the microscope's ocular lenses. Our apparatus allowed us to precisely adjust the field of view of the microscope, enabling efficient and quality imaging (FIG. 8).
To run an assay, we first placed a 20 μL drop of our prepared myofibrils onto the coverslip. Then, we added chemical modifiers (peptides and antibodies) to each droplet as needed and used a CARL ZEISS PLAN 40/0.65 160/0.17™ objective lens to focus on the myofibrils with the microscope. Since the antibodies have a much larger molecular mass than the peptides, we determined that the antibodies would also require a longer period of time to diffuse throughout the myofibril droplet. We allowed the antibodies a minimum of 5 minutes to diffuse into the myofibril solution while we gave peptide modifiers 30 seconds to settle into the solution.
These myofibrils would be likely to show evidence of contraction when they interacted with the ATP in the assay. We photographed the chosen myofibril before the addition of ATP. Then, we pipetted 2 μL of 18 mM ATP on the myofibril droplet, and we typically observed a visible contraction within 30 seconds. We needed to carefully watch the camera screen when adding the ATP because the addition of ATP solution onto the drop or the motion of the myofibril as it contracted would occasionally displace the myofibril. If the myofibril moved, we adjusted our field of view accordingly so that the myofibril was visible once again.
After the contraction concluded, we re-imaged the myofibril to compare the current sarcomere length with the initial sarcomere length. […]

For the compound `C[C@H](NC(=O)[C@H](CCCCN)NC(=O)[C@H](Cc1ccccc1)NC(=O)[C@H](CCCCN)NC(=O)[C@H](CCCCN)NC(=O)[C@H](CCCCN)NC(=O)[C@H](CCCCN)NC(=O)[C@H](CCCCN)NC(=O)[C@H](CCCCN)NC(=O)[C@H](CCCCN)NC(=O)[C@@H](N)CCCCN)C(=O)N[C@@H](CCCCN)C(=O)N[C@@H](CCCCN)C(=O)N[C@@H](CCCCN)C(=O)N[C@@H](CCCCN)C(=O)N[C@@H](CCCCN)C(=O)N[C@@H](CCCCN)C(=O)O` [Stabilizer], the “Average velocity of actin thin filaments” value in assay [1] (20 nM peptide) is on record as 6.18±0.28 microns/second; in assay [1] (100 nM peptide) it was 6.21±0.14 microns/second. Further, the “% Contraction” value in assay [2] (10 nM) turned out to be 12 ± 2%; in assay [2] (40 nM), 10 ± 1%; in assay [2] (80 nM), 9 ± 2%; in assay [2] (200 nM), 8 ± 1%. In addition, the “After (sarcomere length after ATP)” value in assay [2] (10 nM) amounted to 1.9 μm; in assay [2] (40 nM) it was 1.9 μm; in assay [2] (80 nM) it was 2.0 μm; in assay [2] (200 nM), 2.0 μm. In addition, the “Before (sarcomere length before ATP)” value in assay [2] (10 nM) is 2.1 μm; in assay [2] (40 nM), 2.2 μm; in assay [2] (80 nM), 2.2 μm; in assay [2] (200 nM), 2.2 μm. In addition, in assay [2] (40 nM), the “% Contraction of imaged myofibril (FIG. 55, 56)” value is 11%. Also, the IC50 in assay [2] turned out to be 0.068 ± 0.027 µM.

`CSCC[C@H](NC(=O)[C@H](CCC(=O)O)NC(=O)[C@H](CCCNC(=N)N)NC(=O)[C@H](CCC(=O)O)NC(=O)[C@H](CC(=O)O)NC(=O)[C@H](CCC(=O)O)NC(=O)[C@H](CC(C)C)NC(=O)[C@H](CCCNC(=N)N)NC(=O)[C@H](CCC(=O)O)NC(=O)[C@H](CC(N)=O)NC(=O)[C@H](CCSC)NC(=O)[C@@H](N)CCC(=O)O)C(=O)N[C@@H](CCCCN)C(=O)N[C@@H](C)C(=O)N[C@@H](CCC(=O)O)C(=O)N[C@@H](CC(C)C)C(=O)N[C@H](C(=O)N[C@@H](C)C(=O)N[C@@H](CCCCN)C(=O)O)[C@@H](C)O` [Destabilizer]: in assay [1] (20 nM and 100 nM peptide), the “velocity distribution of actin thin filaments (histogram)” value is ~8.0 microns/second. The “Average velocity of actin thin filaments” value was found to be 8.22±0.254 microns/second in assay [1] (20 nM peptide) and 8.39±0.397 microns/second in assay [1] (100 nM peptide). Besides, in assay [1] (vs control), the “rise of motility of actin thin filaments” value turned out to be 18%. Also, the “% Contraction” value in assay [2] (20 nM) was found to be 21 ± 3%; in assay [2] (40 nM) it was 25 ± 8%; in assay [2] (80 nM), 32 ± 4%; in assay [2] (200 nM), 35 ± 7%. In addition, the “After (sarcomere length after ATP)” value turned out to be 1.7 μm in assay [2] (20 nM), 1.7 μm in assay [2] (40 nM), 1.5 μm in assay [2] (80 nM) and 1.5 μm in assay [2] (200 nM). Moreover, the “Before (sarcomere length before ATP)” value in assay [2] (20 nM) came to 2.2 μm; in assay [2] (40 nM), 2.2 μm; in assay [2] (80 nM) it was 2.3 μm; in assay [2] (200 nM), 2.3 μm. Also, in assay [2] (40 nM), the “% Contraction of imaged myofibril (FIG. 55, 56)” value turned out to be 30%. The “induction of contraction compared to control group” value in assay [2] (high concentrations) is “more than two-fold”. In assay [2] (read-out: EC-50 value (50 percent of the increase in percent contraction)), the EC50 is 0.008 ± 0.004 µM. Moreover, in assay [2], the IC50 was determined as 0.012 ± 0.006 µM.
